Experimental data taken from ChEMBL document CHEMBL3639005, “SGLT-2 inhibitors, methods of making them, and uses thereof” (2013).

Columns and labels:
[1] = target: T1, Sodium/glucose cotransporter 1 (Homo sapiens, UniProt P13866); experiment: (§1) In Vitro Assay: The inhibitory activity of the compounds of this invention against the SGLT-1 or SGLT-2 transporters.
T1 sequence (P13866 whole entry): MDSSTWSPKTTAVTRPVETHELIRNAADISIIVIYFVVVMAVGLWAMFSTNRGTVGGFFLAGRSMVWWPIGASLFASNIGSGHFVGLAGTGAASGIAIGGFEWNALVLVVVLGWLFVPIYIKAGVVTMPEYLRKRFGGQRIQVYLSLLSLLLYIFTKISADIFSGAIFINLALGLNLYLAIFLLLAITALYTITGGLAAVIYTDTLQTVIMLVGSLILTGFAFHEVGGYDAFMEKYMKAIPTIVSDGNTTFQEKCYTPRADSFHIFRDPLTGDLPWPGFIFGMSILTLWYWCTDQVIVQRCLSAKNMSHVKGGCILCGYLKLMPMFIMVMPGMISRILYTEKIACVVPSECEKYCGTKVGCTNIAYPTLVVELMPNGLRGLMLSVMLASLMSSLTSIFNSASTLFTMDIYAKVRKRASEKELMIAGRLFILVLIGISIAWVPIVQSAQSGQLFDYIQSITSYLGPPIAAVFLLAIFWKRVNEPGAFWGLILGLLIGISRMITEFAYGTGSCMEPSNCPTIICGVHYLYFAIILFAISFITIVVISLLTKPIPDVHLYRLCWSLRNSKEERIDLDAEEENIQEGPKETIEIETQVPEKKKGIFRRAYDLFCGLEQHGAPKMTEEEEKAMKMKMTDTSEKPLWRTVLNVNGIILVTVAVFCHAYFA

[2] = target: T2, Sodium/glucose cotransporter 2 (Homo sapiens, UniProt P31639); experiment: as §1
T2 sequence (P31639 whole entry): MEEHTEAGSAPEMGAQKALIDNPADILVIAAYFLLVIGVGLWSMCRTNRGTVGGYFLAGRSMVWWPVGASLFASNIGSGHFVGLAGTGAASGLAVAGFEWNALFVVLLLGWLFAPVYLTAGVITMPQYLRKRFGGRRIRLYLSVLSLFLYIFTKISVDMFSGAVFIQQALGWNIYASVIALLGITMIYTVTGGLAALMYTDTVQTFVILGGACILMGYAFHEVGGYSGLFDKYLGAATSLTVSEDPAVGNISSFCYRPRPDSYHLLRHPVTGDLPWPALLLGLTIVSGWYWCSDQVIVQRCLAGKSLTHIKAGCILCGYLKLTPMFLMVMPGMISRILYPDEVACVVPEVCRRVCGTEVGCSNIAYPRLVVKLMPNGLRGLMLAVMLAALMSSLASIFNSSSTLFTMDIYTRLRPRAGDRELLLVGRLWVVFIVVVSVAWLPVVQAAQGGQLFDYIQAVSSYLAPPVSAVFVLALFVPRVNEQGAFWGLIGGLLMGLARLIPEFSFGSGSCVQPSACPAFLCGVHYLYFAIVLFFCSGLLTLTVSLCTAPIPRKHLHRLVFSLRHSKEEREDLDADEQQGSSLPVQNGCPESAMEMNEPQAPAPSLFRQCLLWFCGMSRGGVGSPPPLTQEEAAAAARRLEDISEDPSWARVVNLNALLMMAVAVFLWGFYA

IC50 [1] | IC50 [2] | Compound
> 90000 nM | 91 nM | O=c1n(Cc2cc([C@@H]3O[C@H](CO)[C@@H](O)[C@H](O)[C@H]3O)ccc2Cl)nc2cc(Cl)ccn12
> 90000 nM | 223 nM | N#CC1(c2ccc3nn(Cc4cc([C@@H]5O[C@H](CO)[C@@H](O)[C@H](O)[C@H]5O)ccc4Cl)c(=O)n3c2)CC1
